# Like-named read-outs stand apart in the source and are kept apart here.
# Assays:
# [1] = Metabolic stability in rat liver microsomes; format: in vitro ADME; details: for CLi Rat LM (intrinsic clearance) / half-life at 5 μM: rat liver microsomes 1 mg protein/mL, 5 μM compound, mean±SD; for CLi Rat LM (intrinsic clearance): 37 °C; for half-life at 5 μM: NADPH-regenerating system, pH 7.4, 37 °C, read-out: t 1/2 Rat LM
# Protocol: (§3) Each compound (final concentration: 5 μM) was incubated in the presence of rat or human liver microsomes (final concentration: 1 mg protein/mL) and of a NADPH‐regenerating system (final concentrations: 2 mM NADP^+, 10 mM glucose‐6‐phosphate, 0.4 U mL^−1 glucose‐6‐phosphate dehydrogenase, 5 mM MgCl2) in a 10 mM Phosphate Buffered Saline (PBS) solution, pH 7.4, at 37 °C. Compound was added after a 10 min pre‐incubation at 37 °C and. at stated time points, depending on compound kinetics, sample aliquots were withdrawn, metabolic reaction was quenched by acetonitrile addition (1 : 2), and after a centrifugation step (9000 g, 10 min, 4 °C) the supernatant was analyzed by HPLC‐UV‐VIS.
# (§4) Apparent half‐lives (t1/2 in min) for the metabolic clearance of compounds were calculated from the pseudo first‐order rate constants (k) obtained by linear regression of the log chromatographic peak area versus time plots and are reported as means of three experiments±standard deviation. Intrinsic clearance (CLi) values of the compounds were calculated using the following equation: CLi (μL×min^−1×mg protein^−1)=k×V where V (μL×mg protein^−1)=incubation volume/mg protein added.
# (§5) Pooled rat and human liver microsomes (20 mg/mL) were supplied by BD Biosciences (BD Biosciences, Woburn, MA, USA). Acetonitrile and methanol were HPLC grade and were supplied by Sigma‐Aldrich (Sigma‐Aldrich srl, Milan, Italy). Water was freshly bidistilled before use. All other reagents were purchased in the highest purity available.
# (§6) PeakSimple 2.83 software was employed for data acquisition and HPLC peak integration. HPLC columns were a RP‐C18 Supelco Discovery (Supelco, Bellefonte, PA, USA), 5 μm, 150×4.6 mm i.d. for all compounds except 13, and a Phenomenex Gemini, 5 μm, 150×4.6 mm i.d. for compound 13 (Phenomenex). Elution conditions were optimized for each compound at a flow rate of 1 mL min^−1 employing mobile phases consisting of water and acetonitrile at different percentages, while UV detection was set at λ = 254 nm. For compound 13, the mobile phase consisted of a 10 mM ammonium acetate buffer pH 7.0 and methanol and the UV detection was set at λ = 281 nm.
# human MT2 receptors [2] = biological target: T1, human MT2 receptors (Homo sapiens, UniProt P49286); assay: Agonist activity at MT2, cAMP assay; format: cell-based; details: for EC50: cAMP assay, CHO cells expressing human MT2, mean±SD, triplicate; for functional profile (intrinsic activity): cAMP functional assay at MT2 (with MT1 cell impedance data of Table 3); for Emax: read-out: MT2 E max
# T1 sequence (P49286 1-362): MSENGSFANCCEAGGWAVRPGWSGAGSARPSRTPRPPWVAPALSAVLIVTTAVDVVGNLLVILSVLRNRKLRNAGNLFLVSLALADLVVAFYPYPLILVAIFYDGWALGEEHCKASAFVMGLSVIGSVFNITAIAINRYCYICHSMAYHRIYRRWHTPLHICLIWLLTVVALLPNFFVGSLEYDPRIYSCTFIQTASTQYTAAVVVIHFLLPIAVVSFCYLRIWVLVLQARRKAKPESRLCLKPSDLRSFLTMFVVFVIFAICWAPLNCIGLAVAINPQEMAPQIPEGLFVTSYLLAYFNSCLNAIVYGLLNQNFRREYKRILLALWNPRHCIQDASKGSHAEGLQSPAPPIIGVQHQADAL
# Protocol: (§1) The in vitro pharmacology experiments were conducted at Cerep (Celle‐Lévescault, France) following radioligand binding and cellular functional assays developed elsewhere.[60, 61, 62]
# (§2) To define the functional activity of the new compounds, cellular functional assays were performed on CHO cells stably expressing human MT1 or MT2 receptors. Agonist activity at MT1 receptors was evaluated using a cell impedance assay measured by cellular dielectric spectroscopy,[62] and at MT2 receptors with an cAMP assay, measured by a fluorometric method.[61] The EC50 values were determined by non‐linear regression analysis of the concentration‐response curves. Experiments were performed in triplicate.
# [3] = Thermodynamic solubility, shake flask method; format: physicochemical; details: thermodynamic from solid, room temperature overnight, mean±SD, triplicate
# Protocol: Thermodynamic solubility values were measured in two different buffers (pH 1.0; pH 7.4) by the shake flask method.[65] 1 mg of each compound was placed in 1 mL of appropriate buffer and shaken at room temperature overnight. The resulting suspension was centrifuged (10 min, 10000 g, 20 °C) and the supernatant analyzed by HPLC‐UV. Solubility values were interpolated from calibration curves prepared from concentrated DMSO stock solutions of each compound. Reported solubility values are the mean of three measurements±standard deviation.
# It consisted of a LC‐10ADvp solvent delivery module, a 20 μL Rheodyne sample injector (Rheodyne LLC, Rohnert Park, CA, USA) and a SPD‐10Avp UV‐VIS detector. PeakSimple 2.83 software was employed for data acquisition and HPLC peak integration. […] Elution conditions were optimized for each compound at a flow rate of 1 mL min^−1 employing mobile phases consisting of water and acetonitrile at different percentages, while UV detection was set at λ = 254 nm.
# [4] = Experimental lipophilicity, shake-flask n-octanol/water; format: physicochemical; details: n-octanol/50 mM MOPS buffer pH 7.4, 25±1 °C, mean±SD of three, read-out: Log D oct,7.4
# Protocol: Chosen buffer was 50 mM zwitterionic MOPS (3‐morpholinopropanesulfonic acid), pH 7.4 to avoid ionic couple partitioning, with ionic strength adjusted to 0.15 M by KCl addition. Compounds, after partitioning overnight, and dilution of both phases with methanol, were dosed in the HPLC‐UV system, as detailed below. Reported log D oct,7.4 values are the mean of three measurements±standard deviation.
# HPLC columns were a RP‐C18 Supelco Discovery (Supelco, Bellefonte, PA, USA), 5 μm, 150×4.6 mm i.d. for all compounds except 13, and a Phenomenex Gemini, 5 μm, 150×4.6 mm i.d. for compound 13 (Phenomenex). Elution conditions were optimized for each compound at a flow rate of 1 mL min^−1 employing mobile phases consisting of water and acetonitrile at different percentages, while UV detection was set at λ = 254 nm. For compound 13, the mobile phase consisted of a 10 mM ammonium acetate buffer pH 7.0 and methanol and the UV detection was set at λ = 281 nm.
# [5] = Metabolic stability in human liver microsomes; format: in vitro ADME; details: for CLi Human LM (intrinsic clearance) / half-life at 5 μM: human liver microsomes 1 mg protein/mL, 5 μM compound, mean±SD; for CLi Human LM (intrinsic clearance): 37 °C; for half-life at 5 μM: NADPH-regenerating system, pH 7.4, 37 °C, read-out: t 1/2 Human LM
# Protocol: as §3, §4, §5, §6
# human MT2 receptors [6] = biological target: T1, human MT2 receptors; assay: Radioligand binding, 2-[125I]iodomelatonin competition at MT2; details: cloned human MT2 in CHO cells; from IC50 by Cheng-Prusoff; mean±SD of three determinations; read-out: MT2 K i
# Protocol: (§7) After incubation, the % of radioligand binding inhibition was determined via a scintillation counting method. The radioligand binding experiments were performed in triplicate. IC50 values were determined by nonlinear regression analysis of the competition curves using Hill equation curve fitting. The pK i values were calculated from the IC50 values in accordance with the Cheng‐Prusoff equation.[28]
# human MT1 receptors [7] = biological target: T2, human MT1 receptors (Homo sapiens, UniProt P48039); assay: Agonist activity at MT1, cell impedance assay (cellular dielectric spectroscopy); format: cell-based; details: for EC50: cell impedance assay, CHO cells expressing human MT1, mean±SD, triplicate; for Emax: read-out: MT1 E max
# Protocol: as §1, §2
# [8] = In vivo pharmacokinetic study in rat plasma; parameters: species or system Sprague‐Dawley rats; details: for Vd / bioavailability / AUC / Cmax / clearance / half-life: male; for Vd / bioavailability: plasma; for Vd / bioavailability / F (oral bioavailability): rat; for Vd: read-out: V ss; for bioavailability / F (oral bioavailability): PO 40 mg kg^−1 vs IV 5 mg kg^−1; for bioavailability: read-out: F (oral bioavailability); for AUC / Cmax / clearance / half-life: rat plasma
# Protocol: To evaluate the in vivo behavior of the two melatonergic ligands 14 and 19, a preliminary pharmacokinetic (PK) study was carried out in male Sprague‐Dawley rats. The compounds were administered as intravenous bolus (IV) or by oral gavage (PO) at doses of 5 or 40 mg kg^−1, respectively. Quantitative analysis was carried out by UPLC/MS/MS and the plasma concentration profiles are shown in Figure 3, while the main PK parameters are listed in Table 4.
# The in vivo pharmacokinetic experiments were conducted at NiKem Research (Baranzate – Milan – Italy). PK studies were performed using Sprague‐Dawley CD (albino) male rats (7–9 weeks‐old, weight 160–200 grams, Charles River Lab. Italia, Calco). Animals were housed under standard conditions and had free access to water and standard laboratory rodent diet. Care and husbandry of animals were in conformity with the institutional guidelines, in compliance with national and international laws and policies (EEC Council Directive 86/609, OJL 358 m, 1, Dec. 122, 1987; NIH Guide for the care and Use of Laboratory Animals, NIH Publication No. 86–23, 1985). The compounds were dissolved in water containing 3 % DMSO and 20 % Encapsin (and a stechiometric amount of HCl for 14) at a concentration of 2.5 mg mL^−1 for the IV (bolus) dose, or in water containing 5 % DMSO and 10 % encapsin (and a stechiometric amount of HCl for 14) at a concentration of 4 mg mL^−1 for PO (gavage) dose. Rats were randomly assigned to four treatment groups (n=3) and received a single IV bolus dose (5 mg kg^−1) or a single oral administration (40 mg kg^−1) through oral gavage of compound 14 or 19. Serial blood samples ([…]) were collected from caudal vein at 5, 30, 60, 120, 480 and 1440 min after IV injection, or at 15, 30, 60, 120, 480 and 1440 min after PO administration. Blood samples were collected in heparinized eppendorfs (Heparin Vister 5000 U.I./mL_Marvecs Pharma), gently mixed and placed on ice; then blood was centrifuged (3500×g, at 4 °C for 15 min), the plasma was collected and immediately frozen at −80 °C until submission to UPLC/MS/MS analysis. For the sample preparation, 100 μL of plasma spiked with 5 μL of internal standard (I.S.; 19 for compound 14 and 14 for compound 19; 2.5 μg mL^−1;) were added to a SW96 deep well plate (Waters) containing 300 μL of acetonitrile. The plate was shaken for 10 min and then centrifuged at 3000 rpm for 15 min. UPLC/MS/MS analyses were performed on an Acquity UPLC, coupled with a sample organizer and interfaced with a triple quadrupole Premiere XE (Waters, Milford, USA). LC runs (inj. vol. 5 μL) were carried out at 50 °C on Acquity BEH C18 columns (1.7 μm, 2.1×50 mm) at a flow rate of 0.45 mL min^−1. Mobile phases consisted of a phase A (water) and a phase B (0.1 % formic acid in acetonitrile). The column was conditioned with 2 % phase B for 0.2 min, then brought to 100 % phase B within 0.6 min and maintained at these conditions for 1.1 min. Analyses were carried out using a positive electrospray ionization [ESI(+)] interface in multiple reaction monitoring (MRM) mode. Capillary 3.5 Kv; extractor 3 V; source T 140 °C, desolvation T 450 °C. Transitions: for compound 14 Q1/Q3 315.2/86, CV 14, CE16+315.2/238 CV 14, CE19; for I.S. (compound 19): 301.1/86 CV 14 CE16; LLOQ: 1 ng ml^−1. Transitions: for compound 19 Q1/Q3: 301.1/86CV 14 CE16; for I.S. (compound 14) 315.2/238CV 14, CE19; LLOQ: 1 ng mL^−1. Pharmacokinetic analysis was performed by non‐compartmental analysis (NCA) using the WinNonlin 5.1 software (Pharsight, Mountain View, CA, USA. Absolute oral bioavailability (F) was calculated by linear trapezoidal rule using the relationship: F=[doseIV×AUCoral o‐∞/doseoral×AUCIV o‐∞]×100.
# human MT1 receptors [9] = biological target: T2, human MT1 receptors; assay: Radioligand binding, 2-[125I]iodomelatonin competition at MT1; details: cloned human MT1 in CHO cells; from IC50 by Cheng-Prusoff; mean±SD of three determinations; read-out: MT1 K i
# Protocol: as §7
# [10] = buffer pH 1.0, simulated gastric fluid, pH 1.0 buffer, read-out: Solubility pH 1.0
# [11] = buffer pH 7.4, aqueous buffer, pH 7.4 buffer, read-out: Solubility pH 7.4
# [12] = Sprague-Dawley CD, IV bolus 5 mg kg^−1
# [13] = Sprague-Dawley CD, PO gavage 40 mg kg^−1
# [14] = Sprague-Dawley, IV bolus 5 mg kg^−1
# [15] = Sprague-Dawley, PO gavage 40 mg kg^−1
# T2 sequence (P48039 whole entry): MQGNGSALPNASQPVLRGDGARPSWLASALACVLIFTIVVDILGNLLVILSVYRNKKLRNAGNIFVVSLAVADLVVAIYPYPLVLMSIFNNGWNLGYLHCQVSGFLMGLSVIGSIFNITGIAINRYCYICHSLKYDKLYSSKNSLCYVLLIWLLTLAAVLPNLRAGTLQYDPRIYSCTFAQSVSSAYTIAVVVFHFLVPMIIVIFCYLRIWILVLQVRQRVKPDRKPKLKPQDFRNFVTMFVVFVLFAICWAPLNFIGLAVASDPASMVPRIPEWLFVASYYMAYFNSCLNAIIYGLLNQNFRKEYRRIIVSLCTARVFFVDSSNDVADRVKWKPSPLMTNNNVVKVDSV
SMILES,CLi Rat LM (intrinsic clearance) [1] [μL min^−1 mg prot^−1],half-life at 5 μM [1] [min],"solubility [3, 10] [µg/mL]","solubility [3, 11] [µg/mL]",CLi Human LM (intrinsic clearance) [5] [μL min^−1 mg prot^−1],half-life at 5 μM [5] [min],Ki (human MT2 receptors [6]) [nM],Ki (human MT1 receptors [9]) [nM],logD ([4]; n-octanol/water (MOPS buffer)),melting point [°C],EC50 (human MT2 receptors [2]) [nM],functional profile (intrinsic activity) (human MT2 receptors [2]),Emax (human MT2 receptors [2]) [%],EC50 (human MT1 receptors [7]) [nM],Emax (human MT1 receptors [7]) [%],F (oral bioavailability) [8],further results
"COc1ccc(Br)c(N(C)CCNC(C)=O)c1 [Compound 19, N ‐{2‐[(2‐Bromo‐5‐methoxyphenyl)methylamino]ethyl}acetamide]",39.6±3.1,17.6 ± 1.5,> 1000,823 ± 34.7,8.9±1.4,78.5 ± 12.2,2.4 ± 0.1,18 ± 0.7,,,0.83 ± 0.05,full agonist,93 ± 2,4.4 ± 0.2,94 ± 4,moderate,"logD ([4]; n-octanol/water (50 mM MOPS buffer)): 1.85 ± 0.01; Vd [8, 12]: 0.7 ± 0.1 L/kg; bioavailability ([8]; Sprague-Dawley CD): 3.6%; AUC [8, 12]: 1100 ng·h/mL; Cmax [8, 12]: 2970 ± 384 ng/mL; clearance [8, 12]: 76.4 ± 8.8 mL/min/kg; half-life [8, 12]: 13.5 ± 0.3 min; AUC [8, 13]: 319 ng·h/mL; Cmax [8, 13]: 456 ± 178 ng/mL; half-life [8, 13]: 26.2 ± 0.9 min"
"CC(=O)NCCN(c1ccc(F)cc1)c1cccc(C(F)F)c1 [Compound 10, N ‐(2‐{[3‐(Difluoromethyl)phenyl](4‐fluorophenyl)amino}ethyl)acetamide]",58.0±8.2,12.2 ± 1.5,54.9 ± 1.1,40.6 ± 0.1,12.8±1.3,55.4 ± 6.8,35 ± 0.35,> 100,3.45 ± 0.02,76 to 77,,,,,,,

# Now from value to compound, other results behind:
CLi Rat LM (intrinsic clearance) [1] [μL min^−1 mg prot^−1],half-life at 5 μM [1] [min],"solubility [3, 10] [µg/mL]","solubility [3, 11] [µg/mL]",CLi Human LM (intrinsic clearance) [5] [μL min^−1 mg prot^−1],half-life at 5 μM [5] [min],Ki (human MT2 receptors [6]) [nM],Ki (human MT1 receptors [9]) [nM],logD ([4]; n-octanol/water (MOPS buffer)),melting point [°C],SMILES,EC50 (human MT2 receptors [2]) [nM],functional profile (intrinsic activity) (human MT2 receptors [2]),Emax (human MT2 receptors [2]) [%],EC50 (human MT1 receptors [7]) [nM],Emax (human MT1 receptors [7]) [%],F (oral bioavailability) [8],further results
241.4±28.5,2.9 ± 0.3,> 1000,> 1000,10.8±1.2,64.9 ± 6.9,3.5 ± 0.05,> 100,2.04 ± 0.01,,"COc1cccc(N(CCNC(C)=O)c2cccc(CO)c2)c1 [Compound 14, N ‐{2‐[(3‐Hydroxymethylphenyl)(3‐methoxyphenyl)amino]ethyl} acetamide]",6.8 ± 0.3,MT2‐selective partial agonist,71 ± 2,53 ± 0.5,32 ± 3,very low,"increase of rat microsomal stability compared to UCM765 ([1]; rat liver microsomes, versus UCM765): approximately 1.5 fold; increase of human microsomal stability compared to UCM765 ([5]; human liver microsomes, versus UCM765): approximately 1.5 fold; Vd [8, 14]: 0.9 ± 0.2 L/kg; bioavailability ([8]; Sprague-Dawley): 0.5%; AUC [8, 14]: 1110 ng·h/mL; Cmax [8, 14]: 2760 ± 479 ng/mL; clearance [8, 14]: 76.2 ± 10.3 mL/min/kg; half-life [8, 14]: 11.5 ± 1 min; AUC [8, 15]: 43.8 ng·h/mL; Cmax [8, 15]: 75.6 ± 39.7 ng/mL; half-life [8, 15]: 19.8 ± 1.9 min"
175.4±22.3,4 ± 0.5,162 ± 4.4,92.5 ± 3.5,17.5±2.4,40.1 ± 5.3,0.07 ± 0.02,0.7 ± 0.1,2.74 ± 0.01,76 to 77,"COc1cccc(N(CCNC(C)=O)c2ccsc2)c1 [Compound 11, N ‐{2‐[(3‐Methoxyphenyl)(thiophen‐3‐yl)amino]ethyl}acetamide]",,,,,,,
218.4±21.2,3.2 ± 0.3,17.7 ± 0.9,14.3 ± 0.1,95.7±14.7,7.4 ± 1.2,1.7 ± 0.08,57 ± 0.1,3.91 ± 0.02,63 to 65,"CCCNC(=O)NCCN(c1ccccc1)c1cccc(OC)c1 [Compound 6 c, 1‐{2‐[(3‐Methoxyphenyl)phenylamino]ethyl}‐3‐propylurea]",,,,,,,

# — publication PMC8518537, “N‐(Anilinoethyl)amide Melatonergic Ligands with Improved Water Solubility and Metabolic Stability” (Chemmedchem, 2021)
